Measured values published in US10005817B2, “Peptide pharmaceuticals” (EUMEDERIS PHARMACEUTICALS, INC., priority 2012, dated 2018).
“Also recorded” adds a separate entry of the source. Non-standard residues stand in square brackets, D forms with d. Residues, ends and D or L forms follow the SMILES beside them. *: point of attachment. GlcA(β-D,1-O-dodecyl) = CCCCCCCCCCCCO[C@@H]1O[C@H](C(=O)*)[C@@H](O)[C@H](O)[C@H]1O; βGlcA(1-OMe) = CO[C@@H]1O[C@H](C(=O)*)[C@@H](O)[C@H](O)[C@H]1O; Dmt = Cc1cc(O)cc(C)c1C[C@H](N)C(=O)O; hArg = N=C(N)NCCCC[C@H](N)C(=O)O; Tic = O=C(O)[C@@H]1Cc2ccccc2CN1; Nle = CCCC[C@H](N)C(=O)O; Ac5c = NC1(C(=O)O)CCCC1; Aib = CC(C)(N)C(=O)O

Experiments:
[1] = target: T1, PTH receptor (PTHR1) (Homo sapiens, UniProt Q03431); assay: PTH1 cellular assay, antagonist mode with added PTHrP; type: cell-based; settings: read-out: maximal effects in antagonist mode
T1 construct: Cerep SA
T1 sequence (Q03431 27-593): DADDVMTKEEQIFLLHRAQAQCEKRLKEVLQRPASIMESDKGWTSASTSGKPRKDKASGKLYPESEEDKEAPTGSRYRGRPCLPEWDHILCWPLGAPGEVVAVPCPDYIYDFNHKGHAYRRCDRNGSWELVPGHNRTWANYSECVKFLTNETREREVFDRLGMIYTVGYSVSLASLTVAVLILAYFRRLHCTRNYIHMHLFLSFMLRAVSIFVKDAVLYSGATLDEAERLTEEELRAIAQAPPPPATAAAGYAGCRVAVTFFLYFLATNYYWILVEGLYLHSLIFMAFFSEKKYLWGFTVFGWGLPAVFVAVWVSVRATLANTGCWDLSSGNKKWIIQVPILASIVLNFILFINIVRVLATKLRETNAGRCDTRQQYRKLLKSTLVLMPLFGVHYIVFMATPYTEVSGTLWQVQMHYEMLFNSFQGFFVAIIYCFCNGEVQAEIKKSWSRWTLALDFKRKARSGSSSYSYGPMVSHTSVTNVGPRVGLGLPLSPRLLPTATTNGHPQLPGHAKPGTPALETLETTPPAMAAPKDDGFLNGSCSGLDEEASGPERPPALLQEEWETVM
Procedure: Compounds were weighed precisely in an amount of approximately 1 mg and assayed in standard cellular assays (cerep SA). The readout is the amount of cAMP generated in the cells treated with the test compounds, in either agonist or antagonist mode. The PTH1 cellular assay used is described in Orloff, J. J., et al. (1992) Endocrinol 131: 1603-1611.
Modifications elsewhere in the molecule can be used to further modify the potency and character of the interaction of the drug candidates.

[2] = target: T2, mu opioid receptor (Homo sapiens, UniProt P35372); assay: mu opioid receptor cellular assay (MOP), agonist mode, cAMP readout (Cerep); type: cell-based
T2 construct: Cerep

[3] = target: T3, delta2 opioid receptor (Mus musculus, UniProt P32300); assay: delta2 opioid receptor cellular assay (DOP), antagonist mode vs DPDPE, cAMP readout; type: cell-based
T3 construct: Cerep
Procedure: Compounds were weighed precisely in an amount of approximately 2 mg and assayed in standard cellular assays by the contract research organization Cerep, Inc. (Pullman, Wash.) as executed at their subsidiary, Cerep SA (Le Bois l'Eveque, France). The readout is the amount of cAMP generated in the cells treated with the test compounds, in either agonist or antagonist mode. The assays used were the mu opioid receptor cellular assay (MOP in agonist and antagonist mode), the delta2 opioid receptor cellular assay (DOP in agonist and antagonist mode) and the kappa opioid receptor cellular assay (KOP in agonist and antagonist mode). The assays used are described in Wang, J. B., et al. (1994) FEBS Lett 338: 217-222, Law, P. Y. and Loh, H. H. (1993) Mol Pharmacol 43: 684-693, and Avidor-Reiss, T., et al. (1995) FEBS Lett 361: 70-74. The stimulant for the cells in the DOR antagonist assay was 3×10E-8M DPDPE, a well-accepted DOR literature standard.

[4] = test system: λ-carrageenan-induced inflammatory pain; assay: λ-carrageenan-induced inflammatory pain model, paw pressure threshold (Randall-Selitto); type: in vivo, rat; settings: rats, i.pl., 24 h after carrageenan; beyond 30 min
Procedure: Adult male Sprague-Dawley rats were briefly anesthetized with isoflurane, and unilateral hind paw inflammatory pain was induced by injecting […] of λ-carrageenan. A λ-carrageenan injection into the left hind paw produces redness and edema. These alterations were observed within 6 h after induction of inflammation and peaked by 24 h. Further, the changes were confined to the carrageenan treated paw.
Changes in Paw Pressure Thresholds (PPT), a measurement of nociception and antinociception, was evaluated using a digital Randall-Selitto method. Briefly, animals are gently restrained and incremental pressure (maximum 350 g) was applied onto the dorsal surface of the hindpaw. The pressure required to elicit paw withdrawal, PPT, was determined. Paw-thickness, the indicator of inflammation, was measured using digital calipers. 24 h after induction of inflammation, rats received either saline, positive controls (DAMGO (8-32 μg) or fentanyl (0.4-0.8 μg)) or test peptides in 100 μl volume i.pl. The antinociception was measured at different time points (5 to 120 min or 5 hr to 24 hr) after drug administration. Baseline measures were taken before administering drug to confirm the development of inflammation and nociception.

[5] = target: T4, GLP-1 R (Mus musculus, UniProt O35659); assay: GLP-1 cellular assay, cAMP stimulation (murine cell line, Cerep); type: cell-based; settings: n.c. = EC50 not calculable
T4 construct: GLP-1 (murine cell line) cellular assays
T4 sequence (O35659 22-463): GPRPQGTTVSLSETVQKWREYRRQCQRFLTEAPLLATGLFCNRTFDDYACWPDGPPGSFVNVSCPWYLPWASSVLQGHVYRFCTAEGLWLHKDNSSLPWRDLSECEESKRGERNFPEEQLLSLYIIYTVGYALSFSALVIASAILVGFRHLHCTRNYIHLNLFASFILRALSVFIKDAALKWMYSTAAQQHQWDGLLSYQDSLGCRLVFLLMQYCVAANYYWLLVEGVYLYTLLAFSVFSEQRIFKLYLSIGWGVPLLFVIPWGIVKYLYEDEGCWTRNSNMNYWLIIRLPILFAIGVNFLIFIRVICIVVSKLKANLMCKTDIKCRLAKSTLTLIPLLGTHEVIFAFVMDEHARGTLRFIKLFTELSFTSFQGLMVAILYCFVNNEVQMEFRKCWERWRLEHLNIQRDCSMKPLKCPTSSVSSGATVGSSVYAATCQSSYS
Procedure: Compounds were weighed precisely in an amount of approximately 1 mg and assayed in standard cellular assays (Cerep SA). The readout is the amount of cAMP generated in the cells treated with the test compounds, in either agonist or antagonist mode. […] The assays are described in Chicchi, G. G., et al. (1997) J Biol Chem 272: 7765-7769 and Runge, S., et al. (2003) Br J Pharmacol 138: 787-794.

[6] = test system: db/db mice; assay: db/db mice, blood glucose after s.c. dosing; type: in vivo, mouse; settings: for Mean Blood Glucose: db/db mice, s.c., 300 nmole/kg
Procedure: The 60 female db/db B6BKS (D) Leprdb/J (strain 000697) mice for this study were approximately 8 to 9 weeks old at arrival (Jackson Laboratory, Bar Harbor, Me.). […] One group of 8 female mice served as the vehicle control and received the vehicle, 0.2% BSA in saline, pH 7.4. One additional group of 8 female mice received the positive control article, liraglutide, at a dose level of 50 nmoles/kg. The test articles, vehicle, and positive control article were administered on Day 1, at approximately 0, 7, and 24 hours during the study via subcutaneous injection at a dose volume of 6 mL/kg.
(§1) Clinical observations were conducted at receipt, prior to randomization, and daily from Days 1 to 5. Body weights were measured and recorded at receipt, prior to randomization, and daily from Days 1 to 5. Food consumption was measured and recorded daily from Days 1 to 5. Blood samples for glucose analysis were collected pretest (Day −3) and at 0, 1, 2, 4, 8, 10, 24, 48, 72, and 96 hours following the first dose on Day 1. At study termination all animals were euthanized and the carcasses were discarded without further evaluation.

[7] = test system: db/db mice; assay: db/db mice, body weight; type: in vivo, mouse; settings: high dose (300 nmoles/kg), Days 2 and 3
Procedure: The 60 female db/db B6BKS (D) Leprdb/J (strain 000697) mice for this study were approximately 8 to 9 weeks old at arrival (Jackson Laboratory, Bar Harbor, Me.). The mice were randomized by weight and two treatment groups of 8 female mice each were administered the test articles, EU-A994, EU-A995, or EU-A1026, at dose levels of 100 or 300 nmoles/kg. One group of 8 female mice served as the vehicle control and received the vehicle, 0.2% BSA in saline, pH 7.4. One additional group of 8 female mice received the positive control article, liraglutide, at a dose level of 50 nmoles/kg. The test articles, vehicle, and positive control article were administered on Day 1, at approximately 0, 7, and 24 hours during the study via subcutaneous injection at a dose volume of 6 mL/kg.
as §1

T3 sequence (P32300 whole entry): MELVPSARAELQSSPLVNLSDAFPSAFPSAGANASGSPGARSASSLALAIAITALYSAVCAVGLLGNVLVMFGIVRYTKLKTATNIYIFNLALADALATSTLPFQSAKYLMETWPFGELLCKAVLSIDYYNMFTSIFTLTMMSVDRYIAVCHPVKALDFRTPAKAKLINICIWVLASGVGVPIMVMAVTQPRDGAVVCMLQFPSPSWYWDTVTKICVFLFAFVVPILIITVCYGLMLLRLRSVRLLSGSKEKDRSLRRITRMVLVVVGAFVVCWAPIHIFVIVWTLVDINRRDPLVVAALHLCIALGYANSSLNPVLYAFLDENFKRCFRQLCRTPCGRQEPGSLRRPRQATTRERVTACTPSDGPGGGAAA
T2 sequence (P35372 whole entry): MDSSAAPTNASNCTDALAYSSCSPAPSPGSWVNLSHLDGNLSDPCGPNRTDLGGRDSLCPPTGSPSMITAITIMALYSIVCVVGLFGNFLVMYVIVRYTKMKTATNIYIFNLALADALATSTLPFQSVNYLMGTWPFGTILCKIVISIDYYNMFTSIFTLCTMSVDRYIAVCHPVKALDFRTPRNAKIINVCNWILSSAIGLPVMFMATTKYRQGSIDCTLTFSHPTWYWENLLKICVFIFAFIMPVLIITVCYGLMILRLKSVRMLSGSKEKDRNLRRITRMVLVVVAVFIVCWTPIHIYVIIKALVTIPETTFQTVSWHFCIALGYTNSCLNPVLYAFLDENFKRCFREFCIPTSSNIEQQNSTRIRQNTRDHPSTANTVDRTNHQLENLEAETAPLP

Which Emax [1] does the source give for `CCCCCCCCCCCCO[C@@H]1O[C@H](C(=O)NCCCC[C@H](NC(=O)[C@H](CCC(N)=O)NC(=O)[C@@H](NC(=O)[C@H](Cc2ccccc2)NC(=O)[C@H](CCCNC(=N)N)NC(=O)[C@H](C)NC(=O)[C@H](CCCCNC(=N)N)NC(=O)[C@H](CCC(N)=O)NC(=O)[C@H](Cc2c[nH]cn2)NC(=O)[C@H](CCCC)NC(=O)[C@H](CC(C)C)NC(=O)[C@H](CCC(N)=O)NC(=O)[C@@H](NC(=O)[C@H](CCC(=O)O)NC(=O)C(C)(C)NC(=O)[C@@H](NC(=O)C2(N)CCCC2)C(C)C)[C@@H](C)CC)[C@@H](C)CC)C(N)=O)[C@@H](O)[C@H](O)[C@H]1O` [EU-203] (H-[Ac5c]V[Aib]EIQL[Nle]HQ[hArg]ARFIQK(GlcA(β-D,1-O-dodecyl))-NH2; N-terminus assumed) here?
Its Emax is 146%.

What does the source list for `CO[C@@H]1O[C@H](C(=O)NCCCC[C@H](NC(=O)[C@H](Cc2ccccc2)NC(=O)[C@@H]2Cc3ccccc3CN2C(=O)[C@@H](N)Cc2c(C)cc(O)cc2C)C(N)=O)[C@@H](O)[C@H](O)[C@H]1O` [EU-A178, 2′,6′-dimethyl-L-tyrosyl-L-1,2,3,4-tetrahydroisoquinoline-3-carbonyl-L-phenylalanyl-Nε-(1′-methyl β-D-glucuronyl)-L-lysyl-amide] (H-[Dmt][Tic]FK(βGlcA(1-OMe))-NH2)?
Characterization (MOP) [2]: full agonistic behavior; also recorded: Pure MOP Ag;; Characterization (DOP) [3]: pure antagonist; also recorded: pure DOP antag; Paw Pressure Thresholds (PPT) [4]: statistically significant increases in PPT

Which EC50 [5] does the source give for `CCCCCCCCCCCCO[C@@H]1O[C@H](C(=O)NCCCC[C@H](NC(=O)[C@@H]2CCCCNC(=O)CC[C@H](NC(=O)[C@H](CC(=O)O)NC(=O)[C@H](CC(C)C)NC(=O)[C@H](Cc3ccc(O)cc3)NC(=O)[C@H](CCCCN)NC(=O)[C@H](CO)NC(=O)[C@H](Cc3ccc(O)cc3)NC(=O)[C@H](CC(=O)O)NC(=O)[C@H](CO)NC(=O)[C@@H](NC(=O)[C@H](Cc3ccccc3)NC(=O)[C@@H](NC(=O)CNC(=O)[C@H](CCC(N)=O)NC(=O)C(C)(C)NC(=O)[C@@H](N)Cc3c[nH]cn3)[C@@H](C)O)[C@@H](C)O)C(=O)N[C@@H](CCCNC(=N)N)C(=O)N[C@@H](C)C(=O)N[C@@H](C)C(=O)N2)C(=O)N[C@@H](Cc2ccccc2)C(=O)NC(C)(C)C(N)=O)[C@@H](O)[C@H](O)[C@H]1O` [EU-A455] here?
The EC50 was 59 nM.

What does the source list for `CCCCCCCCCCCCCCO[C@@H]1O[C@H](C(=O)NCCCC[C@H](NC(=O)[C@@H](NC(=O)[C@H](Cc2ccccc2)NC(=O)[C@H](CCC(=O)O)NC(=O)[C@@H]2CCCCNC(=O)CC[C@H](NC(=O)[C@H](CC(=O)O)NC(=O)[C@H](CC(C)C)NC(=O)[C@H](Cc3ccc(O)cc3)NC(=O)[C@H](CCCCN)NC(=O)[C@H](CO)NC(=O)[C@H](Cc3ccc(O)cc3)NC(=O)[C@H](CC(=O)O)NC(=O)[C@H](CO)NC(=O)[C@@H](NC(=O)[C@H](Cc3ccccc3)NC(=O)[C@@H](NC(=O)CNC(=O)[C@H](CCC(N)=O)NC(=O)C(C)(C)NC(=O)[C@@H](N)Cc3c[nH]cn3)[C@@H](C)O)[C@@H](C)O)C(=O)N[C@@H](CCC(N)=O)C(=O)N[C@@H](C)C(=O)N[C@@H](C)C(=O)N2)[C@@H](C)CC)C(=O)N[C@@H](Cc2c[nH]c3ccccc23)C(=O)N[C@@H](CC(C)C)C(=O)N[C@@H](CC(C)C)C(=O)N[C@@H](CCC(N)=O)C(=O)N[C@H](C(N)=O)[C@@H](C)O)[C@@H](O)[C@H](O)[C@H]1O` [EU-A994]?
Mean Blood Glucose ([6]; 0 hr): 554 mg/dL; Mean Blood Glucose ([6]; 10 hr): 242 mg/dL; Mean Blood Glucose ([6]; 24 hr): 209 mg/dL; Mean Blood Glucose ([6]; 48 hr): 385 mg/dL; Glucose levels vs vehicle ([6]; high dose (300 nmoles/kg), at 10 and 24 hours): significantly different from vehicle; body weight changes against vehicle [7]: Significant body weight changes
